Data taken from patent US20160206688A1, “METHODS FOR TREATING BACTEREMIA AND OSTEOMYELITIS USING ORITAVANCIN” (THE MEDICINES COMPANY, priority 2013, published 2016).
In brackets after ≈: the same amount, converted by molar mass.

Key:
[1] = tested on: Coagulase-negative staphylococci; assay: Broth microdilution MIC, European bacteraemia isolates 2010-2012; type: cell-based, coagulase-negative staphylococci (CoNS); details: Table 2, Coagulase-negative staphylococci (646)
Procedure: (§1) A total of 2,904 clinical strains responsible for documented bacteremia among unique hospitalized patients in 38 hospitals in 11 European Union countries. Israel, Russia, Turkey and Ukraine were included in this study (2010-2012). Isolates were submitted to a central monitoring laboratory (JMI Laboratories, North Liberty. Iowa. USA), following previously established protocols. Bacterial species identification was performed by using an automated system (Vitek®2; bioMèrieux, Hazelwood, Mo., USA) or conventional biochemical algorithms, as required.
(§2) Isolates were tested for susceptibility by broth microdilution methods following the Clinical and Laboratory Standards Institute (CLSI; M07-A9, 2012) document. Susceptibility testing was performed in cation-adjusted Mueller-Hinton broth (CA-MHB) using dry-form panels manufactured by Thermo Fisher Scientific, formerly TREK Diagnostics Systems/Sensititre (Cleveland. Ohio, USA). These panels provide results equivalent to the CLSI-approved broth microdilution method supplemented with 0.002% polysorbate-80.
(§3) Quality assurance was performed by concurrent testing of CLSI-recommended (M100-S23, 2013) strains: E. faecalis ATCC 29212 and S. aureus ATCC 29213. Interpretation of comparator MIC results was in accordance with published CLSI (M100-S23) and European Committee on Antimicrobial Susceptibility Testing (EUCAST, 2013) criteria.

[2] = tested on: S. agalactiae; assay: Broth microdilution MIC, US isolates 2011-2012, blood vs non-blood; type: cell-based
Procedure: (§4) 527 E. faecalis, 176 E. faecium, and 790 BHS (335 S. pyogenes and 455 S. agalactiae) clinical, single patient, non-consecutive isolates were collected in 2011-2012 from 46 sites geographically distributed across the United States. The MICs were determined by broth microdilution testing performed in accordance with CLSI M7 and M100 guidelines. From the resulting database, this analysis focused on the activities of ORI, vancomycin (VAN), daptomycin (DAP), and linezolid (LZD) according to specimen source.

[3] = tested on: E. faecium; assay: as above; type: cell-based
Procedure: as §4

[4] = tested on: S. pyogenes; assay: as above; type: cell-based
Procedure: as §4

[5] = tested on: E. faecalis; assay: as above; type: cell-based
Procedure: as §4

[6] = tested on: MDR SA; assay: Microdilution MIC against MDR SA by specimen source; type: cell-based, S. aureus
Procedure: 456 clinical, single-patient, non-consecutive, MDR SA isolates from the known specimen sources collected in 2011-2012 were analyzed. MDR was defined as resistant to ≧3 of the following: erythromycin, clindamycin, gentamicin, levofloxacin, and trimethoprim/sulfamethoxazole. 382 were MRSA and 74 were MSSA. MICs were determined by microdilution testing in accordance with CLSI M7 and M100 guidelines. Although other comparator drugs were tested, this analysis focuses on the activities of ORI, VAN, DAP, and LZD.

[7] = tested on: S. aureus; assay: Broth microdilution MIC, European bacteraemia isolates 2010-2012; type: cell-based; details: S. aureus Methicillin-resistant (1,708)
Procedure: as §1, §2, §3

[8] = tested on: E. faecium; assay: as above; type: cell-based, Enterococcus faecium; details: for % Susceptible, CLSI: CLSI M100-S23 breakpoints; for MIC90: read-out: MIC 90%
Procedure: as §1, §2, §3

[9] = tested on: E. faecalis; assay: as above; type: cell-based, Enterococcus faecalis
Procedure: as §1, §2, §3

[10] = tested on: VRE; assay: Susceptibility of the subject's blood culture isolate (treatment history); type: cell-based
Text: 11, 2013; the plan was for at least 8 weeks of antibiotic therapy.

[11] = Table 2, E. faecium Vancomycin-susceptible (257)

SMILES: CCCCCCCCCC(=O)N[C@@H](Cc1c[nH]c2ccccc12)C(=O)N[C@H](CC(N)=O)C(=O)N[C@@H](CC(=O)O)C(=O)N[C@@H]1C(=O)NCC(=O)N[C@@H](CCCN)C(=O)N[C@@H](CC(=O)O)C(=O)N[C@H](C)C(=O)N[C@@H](CC(=O)O)C(=O)NCC(=O)N[C@H](CO)C(=O)N[C@@H]([C@H](C)CC(=O)O)C(=O)N[C@@H](CC(=O)c2ccccc2N)C(=O)O[C@@H]1C [Daptomycin, daptomycin]
- MIC Range [1]: ≦0.06-2 mg/L
- MIC50 ([1]; read-out: MIC 50%): 0.25 µg/mL (≈ 0.154 µM)
- MIC90 ([1]; read-out: MIC 90%): 0.5 µg/mL (≈ 0.309 µM)
- MIC90 ([2]; Blood, N 100): 0.25 µg/mL (≈ 0.154 µM)
- MIC90 ([2]; Non-Blood, N 355): 0.25 µg/mL (≈ 0.154 µM)
- MIC90 ([3]; Blood, N 84): 4 µg/mL (≈ 2.47 µM)
- MIC90 ([3]; Non-Blood, N 92): 4 µg/mL (≈ 2.47 µM)
- MIC90 ([4]; Blood, N 53): 0.06 µg/mL (≈ 0.037 µM)
- MIC90 ([4]; Non-Blood, N 282): 0.06 µg/mL (≈ 0.037 µM)
- MIC90 ([5]; Blood, N 116): 2 µg/mL (≈ 1.23 µM)
- MIC90 ([5]; Non-Blood, N 411): 2 µg/mL (≈ 1.23 µM)
- MIC50 ([6]; Blood, n = 108): 0.5 µg/mL (≈ 0.309 µM)
- MIC90 ([6]; Blood, n = 108): 0.5 µg/mL (≈ 0.309 µM)
- Mode (MIC) ([6]; Blood, n = 108): 0.5 µg/mL
- Range (MIC) ([6]; Blood, n = 108, in µg/mL): 0.25-4
- MIC50 ([6]; Respiratory, N = 157): 0.5 µg/mL (≈ 0.309 µM)
- MIC90 ([6]; Respiratory, N = 157): 0.5 µg/mL (≈ 0.309 µM)
- Mode (MIC) ([6]; Respiratory, N = 157): 0.5 µg/mL
- Range (MIC) ([6]; Respiratory, N = 157, in µg/mL): 0.12-1
- MIC50 ([6]; Skin/Wound, N = 191): 0.5 µg/mL (≈ 0.309 µM)
- MIC90 ([6]; Skin/Wound, N = 191): 0.5 µg/mL (≈ 0.309 µM)
- Mode (MIC) ([6]; Skin/Wound, N = 191): 0.5 µg/mL
- Range (MIC) ([6]; Skin/Wound, N = 191): ≦0.06-1
- % Susceptible, CLSI ([7]; CLSI M100-S23 breakpoints): 100.0/— %
- % Resistant, EUCAST ([7]; EUCAST 2013 breakpoints): 0.0%
- % Susceptible, EUCAST ([7]; EUCAST 2013 breakpoints): 100.0%
- MIC50 ([7]; Staphylococcus aureus, Table 2, read-out: MIC 50%): 0.25 µg/mL (≈ 0.154 µM)
- MIC90 ([7]; Staphylococcus aureus, Table 2, read-out: MIC 90%): 0.5 µg/mL (≈ 0.309 µM)
- MIC Range ([7]; Table 2): 0.12 to 1 mg/L
- % Susceptible, CLSI ([8]; E. faecium Vancomycin-resistant (VanA-phenotype) (153)): 100.0/— %
- % Susceptible, CLSI ([8]; E. faecium Vancomycin-susceptible (257)): 100.0/— %
- MIC50 ([8]; Enterococcus faecium, Table 2, E. faecium Vancomycin-resistant (VanA-phenotype) (153), read-out: MIC 50%): 2 µg/mL (≈ 1.23 µM)
- MIC90 ([8]; Enterococcus faecium, Table 2, E. faecium Vancomycin-resistant (VanA-phenotype) (153)): 2 µg/mL (≈ 1.23 µM)
- MIC90 ([8]; Enterococcus faecium, Table 2, E. faecium Vancomycin-susceptible (257)): 2 µg/mL (≈ 1.23 µM)
- MIC Range ([8]; Table 2, E. faecium Vancomycin-resistant (VanA-phenotype) (153)): 0.25 to 4 mg/L
- MIC 50% [8, 11]: 2 mg/L (≈ 1.23 µM)
- MIC Range [8, 11]: 0.12 to 4 mg/L
- % susceptible ([8]; VanA-phenotype E. faecium, criteria not stated): 100%
- % Susceptible, CLSI ([9]; E. faecalis (445), CLSI M100-S23 breakpoints): 100.0/— %
- % susceptible ([9]; E. faecalis strains, criteria not stated): 100%
- MIC50 ([9]; Enterococcus faecalis, Table 2, E. faecalis (445), read-out: MIC 50%): 1 µg/mL (≈ 0.617 µM)
- MIC90 ([9]; Enterococcus faecalis, Table 2, E. faecalis (445), read-out: MIC 90%): 1 µg/mL (≈ 0.617 µM)
- MIC Range ([9]; Table 2, E. faecalis (445), includes four VanA-phenotype strains): ≦0.06-4 mg/L
- MIC ([10]; 2012 December): 6 µg/mL (≈ 3.7 µM)
- MIC ([10]; 2012 July): 4 µg/mL (≈ 2.47 µM)
- susceptibility ([10]; 2012 July): borderline susceptible

SMILES: CCCCCCCCCCNCCN[C@@]1(C)C[C@H](O[C@H]2[C@H](Oc3c4cc5cc3Oc3ccc(cc3Cl)[C@@H](O)[C@@H](NC(=O)[C@@H](CC(C)C)NC)C(=O)N[C@@H](CC(N)=O)C(=O)N[C@H]5C(=O)N[C@H]3C(=O)N[C@H](C(=O)N[C@H](C(=O)O)c5cc(O)c(CNCP(=O)(O)O)c(O)c5-c5cc3ccc5O)[C@H](O)c3ccc(c(Cl)c3)O4)O[C@H](CO)[C@@H](O)[C@@H]2O)O[C@@H](C)[C@H]1O [televancin]
- susceptibility ([10]; 2012 December): resistant
